Structures can show the parent of a compound that is named as a salt.
What follows are compounds tested against NK-1 receptor (Homo sapiens, UniProt P25103) (assay: NK-1 receptor-binding test ([3H]-Substance P, hNK1-CHO cells)). Details: not given.
Set-up: expressed in transfected cells; host or cells: CHO-K1 cells (ATCC: CCL-61), G418-resistant, hNK1-CHO
Experimental: 1. NK-1 Receptor-binding Test
1) Preparation of Human NK-1 Receptor Expression Cells
FuGene 6 transfection reagent (Boegringer Mannheim) (3 μL) was diluted in an F-12 culture broth (97 μL), and pCR3.1 plasmid to which human NK-1 receptor cDNA had been introduced (Invitrogen) (10 μL) was added thereto. The mixture was mixed and incubated for 15 minutes (transfection reagent). CHO-K1 cells (ATCC: CCL-61) were cultured for 24 hours, and the whole reagent prepared above was added to the cultured CHO-K1 cells ([…]). Subsequently, culture was performed in the presence of G418 (Stratagene), and the resistant cells were employed as cells into which human NK-1 receptor gene was introduced (hNK1-CHO).
2) Subcultivation of hNK1-CHO Cells
The hNK1-CHO cells were treated with trypsin-EDTA and subcultivated in an F-12 culture broth (containing 10% fetal bovine serum, 10 mM HEPES, 100 U/mL, penicillin, 100 μg/mL streptmycin, 400 μg/mL G418) in a 75-cm^2 flask (FALCON). Cells to be employed in the receptor-binding experiment were added to a 24-well plate (IWAKI) at 1×10^5 cells/well, and subcultured for 48 hours at 37° C. under 95% […] and 5% CO2.
3) Receptor-binding Experiment
When the hNK1-CHO cells became subconfluent on the 24-well plate, an F-12 culture broth (containing 10 mM HEPES and 0.1% fetal bovine serum) (450 μL), [^3H]-Substance P (Amersham, final concentration 0.5 nM), and a test compound were added to the cells, and the mixture was incubated for 40 minutes at 37° C. For the measurement of non-specific binding, L703606 (Sigma) was added instead of the test compound. After completion of incubation, the mixture was washed with ice-cooled phosphate buffered saline containing 0.1% fetal bovine serum, and the cells were lysed with 1N NaOH (0.5 mL). The lysate was transfered to a plastic vial containing UltimaGold MV (5 mL), and the radioactivity was determined by means of a liquid liquid scintillation counter (Packard, 2000CA).
(§1) Percent radioactive ligand-receptor binding inhibition of each test compound was calculated by use of the following equation, and IC50 (nM) was determined through pseudo-Hill analysis.
(§2) Percent inhibition (%)=[1−(C−A)/(B−A)]×100
(§3) A: Radioactivity attributed to non-specific binding
(§4) B: Radioactivity without test compound
(§5) C: Radioactivity with test compound

Chain of NK-1 receptor (P25103 whole entry): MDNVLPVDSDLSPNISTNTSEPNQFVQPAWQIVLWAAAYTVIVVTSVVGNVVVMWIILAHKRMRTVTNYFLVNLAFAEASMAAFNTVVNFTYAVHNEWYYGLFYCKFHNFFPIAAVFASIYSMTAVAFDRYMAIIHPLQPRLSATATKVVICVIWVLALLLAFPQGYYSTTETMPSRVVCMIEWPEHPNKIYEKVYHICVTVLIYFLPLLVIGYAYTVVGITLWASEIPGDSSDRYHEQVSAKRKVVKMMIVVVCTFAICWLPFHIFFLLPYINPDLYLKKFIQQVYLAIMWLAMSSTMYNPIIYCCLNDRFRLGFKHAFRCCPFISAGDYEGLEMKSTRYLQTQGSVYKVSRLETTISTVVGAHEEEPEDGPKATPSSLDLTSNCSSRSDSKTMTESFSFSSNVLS

SMILES | IC50
COc1cc(COCC(CCCN2CCC(C(N)=O)(c3ccccc3)CC2)(c2ccc(Cl)c(Cl)c2)N(C)C(=O)Oc2ccccc2)cc(OC)c1OC (racemic) [Compound No. 17, [4-(4-Carbamoyl-4-phenyl-piperidine-1-yl)-1-(3,4-dichloro-phenyl)-1-(3,4,5-trimethoxy-benzyloxymethyl)-butyl]-methyl-carbamic acid phenyl ester hydrochloride] | 1.5 nM
CN(C[C@](CCCN1CCC(C(N)=O)(c2ccccc2)CC1)(c1ccc(Cl)c(Cl)c1)N(C)C(=O)Oc1ccccc1)C(=O)C(F)(F)F [Compound No. 578, phenyl[1-(2,2,2-trifluoro-N-methylacetamide)-2-(S)-(3,4-dichlorophenyl)-5-(4-carbamoyl-4-phenylpiperidine-1′-yl)pentan-2-yl]methylcarbamate hydrochloride] | 9.5 nM
COc1cc(C(=O)N(C)C[C@](CCCN2CCC3(CC2)c2ccccc2C[S@+]3[O-])(c2ccc(Cl)c(Cl)c2)N(C)C(=O)Oc2ccccc2)cc(OC)c1OC [Compound No. 589, phenyl{1-(3,4,5-trimethoxy-N-methylbenzamide)-2-(S)-(3,4-dichlorophenyl)-5-[spiro(benzo(c)thiophene-(2S)-oxido-1(3H),4′-piperidin)-1′-yl]pentan-2-yl}methylcarbamate hydrochloride] | 0.53 nM
CN(C[C@](CCCN1CCC2(CC1)c1ccccc1C[S@+]2[O-])(c1ccc(Cl)c(Cl)c1)N(C)C(=O)Oc1ccccc1)C(=O)CC(F)(F)F [Compound No. 591, phenyl{1-(3,3,3-trifluoro-N-methylpropanamido)-2-(S)-(3,4-dichlorophenyl)-5-[spiro(benzo(c)thiophene-(2S)-oxido-1(3H),4′-piperidin)-1′-yl]pentan-2-yl}methylcarbamate hydrochloride] | 6.9 nM

Same assay, conditions: Table 2; inhibition of [3H]-Substance P (0.5 nM) binding to hNK1-CHO cells, pseudo-Hill analysis; read-out: NK-1

SMILES | IC50
COc1cc(COCC(CCCN2CCC(C(N)=O)(c3ccccc3)CC2)(c2ccc(Cl)c(Cl)c2)N(C)C(=O)Nc2ccccc2)cc(OC)c1OC (racemic) [Compound No. 15, 1-[4-(3,4-Dichloro-phenyl)-4-(1-methyl-3-phenyl-ureido)-5-(3,4,5-trimethoxy-benzyloxy)-pentyl]-4-phenyl-piperidine-4-carboxylic acid amide] | 0.9 nM
COc1cc(C(=O)N(C)CC(CCN2CCC(C(N)=O)(c3ccccc3)CC2)(c2ccc(Cl)c(Cl)c2)N(C)C(=O)Oc2ccccc2)cc(OC)c1OC (racemic) [Compound No. 16, (3-(4-Carbamoyl-4-phenyl-piperidine-1-yl)-1-(3,4-dichloro-phenyl)-1-{[methyl-(3,4,5-trimethoxy-benzoyl)-amino]-methyl}-propyl)-methyl-carbamic acid phenyl ester hydrochloride] | 3.5 nM
COc1cc(COC[C@](CCCN2CCC3(CC2)c2ccccc2C[S@+]3[O-])(c2ccc(Cl)c(Cl)c2)N(C)C(=O)NC2CCCCC2)cc(OC)c1OC [Compound No. 599, 1-{1-(3,4,5-trimethoxybenzyloxy)-2-(S)-(3,4-dichlorophenyl)-5-[spiro(benzo(c)thiophene-(2S)-oxido-1(3H),4′-piperidin)-1′-yl]pentan-2-yl}-3-cyclohexyl-1-methylurea hydrochloride] | 0.73 nM

The compounds below were run against T1, Cloned Neurokinin Receptor Subtype 2 Human (Homo sapiens, UniProt P21452) (assay: NK-2 receptor-binding experiment ([3H]-SR48968, CHO cell membranes)). Details: Table 3; inhibition of [3H]-SR48968 (0.85 nM) binding, pseudo-Hill analysis.
T1 construct: purchased Biosignal Packard; host or cells: CHO cells
T1 sequence (P21452 1-398): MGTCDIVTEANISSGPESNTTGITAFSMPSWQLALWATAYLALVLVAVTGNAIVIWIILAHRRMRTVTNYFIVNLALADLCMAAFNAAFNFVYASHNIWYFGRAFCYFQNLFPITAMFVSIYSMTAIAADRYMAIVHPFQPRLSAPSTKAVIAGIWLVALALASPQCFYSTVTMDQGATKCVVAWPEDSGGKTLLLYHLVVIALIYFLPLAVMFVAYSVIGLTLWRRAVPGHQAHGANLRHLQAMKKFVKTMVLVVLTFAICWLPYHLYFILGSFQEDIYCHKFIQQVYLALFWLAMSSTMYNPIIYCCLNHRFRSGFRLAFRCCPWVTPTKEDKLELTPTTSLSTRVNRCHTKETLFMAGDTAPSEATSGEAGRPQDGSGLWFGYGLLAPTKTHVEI
Experimental: 2. NK-2 Receptor-binding Experiment
Cloned Neurokinin Receptor Subtype 2 Human (CHO cells, Biosignal Packard), [^3H]-SR48968 (Amersham, final concentration 0.85 nM), and a test compound were mixed with 20 mM HEPES buffer, and the mixture was incubated for 50 minutes at 27° C. After completion of incubation, membrane components were collected by means of an automatic filtration apparatus (Brandel) onto a GF/C glass fiber filter (Whatman).
Before use, in order to prevent non-specific binding, the glass fiber filter had been pre-treated with 0.1% polyethylene imine solution for about 4 hours.
The filter employed to collect the membrane components was transferred to a plastic vial containing UltimaGold MV (5 mL), and measured by means of a liquid scintillation counter (Packard, 2000CA) in terms of the radioactivity.
as §1, §2, §3, §4, §5

SMILES | IC50
CC(=O)N(C)C[C@](CCN1CCC2(CC1)NC(=O)Cc1ccccc12)(c1ccc(Cl)c(Cl)c1)N(C)C(=O)c1ccccc1 [Compound No. 36, N-{1-(N-methyl-acetamide)-2-(S)-(3,4-dichlorophenyl)-4-[3-oxo-3,4-dihydro-2H-spiro(isoquinoline-1,4′-piperidin)-1′-yl]butan-2-yl}-N-methylbenzamide hydrochloride] | 0.85 nM
CCN(C(=O)C(=O)N(C)[C@](CCN1CCC2(CC1)NC(=O)Cc1ccccc12)(CN(C)C(=O)C(C)C)c1ccc(Cl)c(Cl)c1)c1ccccc1 [Compound No. 40, N^1-{1-(N-methylisobutylamide)-2-(S)-(3,4-dichlorophenyl)-4-[3-oxo-3,4-dihydro-2H-spiro(isoquinoline-1,4′-piperidin)-1′-yl]butan-2-yl}-N^1-methyl-N^2-ethyl-N^2-phenyloxalamide hydrochloride] | 0.73 nM
CCN(C(=O)C(=O)N(C)[C@](CCN1CCC2(CC1)NC(=O)Cc1ccccc12)(CN(C)C(=O)CC(F)(F)F)c1ccc(Cl)c(Cl)c1)c1ccccc1 [Compound No. 41, N^1-{1-(3,3,3-trifluoro-N-methylpropanamido)-2-(S)-(3,4-dichlorophenyl)-4-[3-oxo-3,4-dihydro-2H-spiro(isoquinoline-1,4′-piperidin)-1′-yl]butan-2-yl}-N^1-methyl-N^2-ethyl-N^2-phenyloxalamide hydrochloride] | 0.84 nM

Now from value to compound:

IC50 | SMILES
0.96 nM | CCC(=O)N(C)C[C@](CCN1CCC2(CC1)c1ccccc1C[S@+]2[O-])(c1ccc(Cl)c(Cl)c1)N(C)C(=O)c1ccccc1 [Compound No. 34, N-{1-(N-methyl-propionamide)-2-(S)-(3,4-dichlorophenyl)-4-[spiro(benzo(c)thiophene-(2S)-oxido-1(3H),4′-piperidin)-1′-yl]butan-2-yl}-N-methylbenzamide hydrochloride]
4.6 nM | CCC(=O)N(C)C[C@](CCN1CCC2(CC1)c1ccccc1C[S@+]2[O-])(c1ccc(Cl)c(Cl)c1)N(C)C(=O)C(=O)N(C)c1ccccc1 [Compound No. 35, N^1-{1-(N-methyl-propionamide)-2-(S)-(3,4-dichlorophenyl)-4-[spiro(benzo(c)thiophene-(2S)-oxido-1(3H),4′-piperidin)-1′-yl]butan-2-yl}-N^1,N^2-dimethyl-N^2-phenyloxalamide hydrochloride]
1.8 nM | CCN(C(=O)C(=O)N(C)[C@](CCN1CCC2(CC1)c1ccccc1C[S@+]2[O-])(CN(C)C(=O)C(C)(C)C)c1ccc(Cl)c(Cl)c1)c1ccccc1 [Compound No. 37, N^1-{[1-(N-methyl-trimethylacetamide)-2-(S)-(3,4-dichlorophenyl)-4-[spiro(benzo(c)thiophene-(2S)-oxido-1(3H),4′-piperidin)-1′-yl]butan-2-yl}-N^1-methyl-N^2-ethyl-N^2-phenyloxalamide hydrochloride]
1.9 nM | CCN(C(=O)C(=O)N(C)[C@](CCN1CCC2(CC1)NC(=O)Cc1ccccc12)(CN(C)C(=O)C(C)(C)C)c1ccc(Cl)c(Cl)c1)c1ccccc1 [Compound No. 38, N^1-{1-(N-methyl-trimethylacetamide)-2-(S)-(3,4-dichlorophenyl)-4-[3-oxo-3,4-dihydro-2H-spiro(isoquinoline-1,4′-piperidin)-1′-yl]butan-2-yl}-N^1-methyl-N^2-ethyl-N^2-phenyloxalamide hydrochloride]
1 nM | CCN(C(=O)C(=O)N(C)[C@](CCN1CCC2(CC1)c1ccccc1C[S@+]2[O-])(CN(C)C(=O)C(C)C)c1ccc(Cl)c(Cl)c1)c1ccccc1 [Compound No. 39, N^1-{1-(N-methylisobutylamide)-2-(S)-(3,4-dichlorophenyl)-4-[spiro(benzo(c)thiophene-(2S)-oxido-1(3H),4′-piperidin)-1′-yl]butan-2-yl}-N^1-methyl-N^2-ethyl-N^2-phenyloxalamide hydrochloride]

Source: patent publication US7276511B2, “Benzylamine derivative” (Zeria Pharmaceutical Co., Ltd., priority 2003, dated 2007)
